# Results published in patent US7465751B2 (priority 2002, dated 2008).
# Assays:
# [1] = biological target: M2 muscarinic receptor (Rattus norvegicus, UniProt P10980); type: binding
# [2] = biological target: M3 muscarinic receptor (Rattus norvegicus, UniProt P08483); type: binding
# Chain of M3 muscarinic receptor (P08483 whole entry): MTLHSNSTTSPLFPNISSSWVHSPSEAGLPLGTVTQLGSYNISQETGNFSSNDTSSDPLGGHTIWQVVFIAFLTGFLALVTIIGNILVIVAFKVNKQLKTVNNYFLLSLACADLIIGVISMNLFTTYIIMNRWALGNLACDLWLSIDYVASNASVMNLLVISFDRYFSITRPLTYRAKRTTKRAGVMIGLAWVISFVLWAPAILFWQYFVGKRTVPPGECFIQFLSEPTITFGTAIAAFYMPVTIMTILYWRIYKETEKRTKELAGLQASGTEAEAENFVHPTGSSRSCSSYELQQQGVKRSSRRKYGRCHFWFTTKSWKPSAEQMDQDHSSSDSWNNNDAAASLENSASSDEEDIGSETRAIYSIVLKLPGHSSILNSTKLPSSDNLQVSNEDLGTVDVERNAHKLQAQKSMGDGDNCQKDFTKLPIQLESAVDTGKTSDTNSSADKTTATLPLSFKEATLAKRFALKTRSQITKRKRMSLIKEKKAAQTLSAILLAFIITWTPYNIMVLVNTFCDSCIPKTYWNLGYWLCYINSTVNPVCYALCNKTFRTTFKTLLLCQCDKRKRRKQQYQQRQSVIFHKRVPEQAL
# Chain of M2 muscarinic receptor (P10980 whole entry): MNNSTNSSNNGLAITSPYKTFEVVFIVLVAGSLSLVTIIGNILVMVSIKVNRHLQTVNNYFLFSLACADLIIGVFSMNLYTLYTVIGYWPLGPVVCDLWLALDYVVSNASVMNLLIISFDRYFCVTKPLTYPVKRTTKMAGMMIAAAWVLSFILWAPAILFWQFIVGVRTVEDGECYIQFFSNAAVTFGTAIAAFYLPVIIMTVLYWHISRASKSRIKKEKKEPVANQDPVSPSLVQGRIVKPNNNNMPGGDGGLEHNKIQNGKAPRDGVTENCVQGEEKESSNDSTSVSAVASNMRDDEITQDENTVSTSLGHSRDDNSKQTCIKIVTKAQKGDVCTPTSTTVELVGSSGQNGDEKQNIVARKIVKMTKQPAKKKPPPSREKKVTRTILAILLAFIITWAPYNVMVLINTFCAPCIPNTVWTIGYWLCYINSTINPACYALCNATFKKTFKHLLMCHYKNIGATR
substance,measurement,setting,value
(3S)-1-[(phenylacetyl)pyrrolidin-3-yl]cyclopentyl(hydroxy)phenyl acetate [Compound No. 11],Receptor Binding Assay M2 PKi,[1],<6
same,Receptor Binding Assay M3 pki,[2],<6
